Results as given in patent US8063077B2, “Factor Xa inhibitors” (Millennium Pharmaceuticals, Inc., priority 2006, dated 2011).

What follows are compounds tested against T1, human plasma protein factor Xa (Homo sapiens, UniProt P00742) (assay: Factor Xa IC50 determination, cleavage of paranitroanilide substrate S-2765). Details: factor Xa 1 nM, S2765 100 μM, Tris buffered saline pH 7.4, 5% DMSO.
T1 construct: The human plasma protein factor Xa was purchased from Haematologic Technologies; purchased Haematologic Technologies (Essex Junction, Vt.); host or cells: human plasma
Assay type: biochemical
Text: This example illustrates methods for evaluating the compounds of the invention, along with results obtained for such assays. The in vitro and in vivo human Factor Xa activities of the inventive compounds can be determined by various procedures known in the art, such as a test for their ability to inhibit the activity of human plasma Factor Xa. […] The IC50 value is the concentration (in nM) of the compound required to provide 50% inhibition of human Factor Xa proteolytic activity.
An in vitro assay for detecting and measuring inhibition activity against Factor Xa is as follows:
The substrate S-2765 (Z-D-Arg-Gly-Arg-pNA•HCl) was obtained from Diapharma (West Chester, Ohio).
The human plasma protein factor Xa was purchased from Haematologic Technologies (Essex Junction, Vt.).
All assays, which are performed in 96-well microtiter plates, measure proteolytic activity of the enzyme (factor Xa) by following cleavage of a paranitroanilide peptide substrate. The assay buffer used for proteolytic assays was Tris buffered saline (20 mM Tris, 150 mM NaCl, 5 mM CaCl2, 0.1% Bovine serum albumin (BSA), 5% Dimethly Sulfoxide (DMSO) pH 7.4). In a 96-well microtiter plate, inhibitor was serially diluted to give a range of final concentrations from 0.01 nM to 10 μM. Duplicate sets of wells were assayed and control wells without inhibitor were included. Enzyme was added to each well, (factor Xa concentration=1 nM), the plate was shaken for 5 seconds and then incubated for 5 minutes at room temperature. S2765 was added (100 μM final) and the plate was shaken for 5 seconds (final volume in each well was 200 μl). The degree of substrate hydrolysis was measured at 405 nm on a Thermomax plate reader (Molecular Devices, Sunnyvale, Calif.) for 2 minutes. The initial velocities of substrate cleavage (mOD/min), for each range of inhibitor concentrations, were fitted to a four parameter equation using Softmax data analysis software. The parameter C, derived from the resulting curve-fit, corresponded to the concentration for half maximal inhibition (IC50).

T1 sequence (P00742 235-488 limits assumed): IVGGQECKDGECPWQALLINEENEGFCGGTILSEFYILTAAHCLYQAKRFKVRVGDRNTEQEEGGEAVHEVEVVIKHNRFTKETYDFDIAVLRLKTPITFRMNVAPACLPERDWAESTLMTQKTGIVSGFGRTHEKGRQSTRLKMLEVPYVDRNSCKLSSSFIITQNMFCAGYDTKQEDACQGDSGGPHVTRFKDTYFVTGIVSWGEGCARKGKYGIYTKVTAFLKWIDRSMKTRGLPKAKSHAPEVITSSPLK
T1 sequence (P00742 41-179 partner limits assumed): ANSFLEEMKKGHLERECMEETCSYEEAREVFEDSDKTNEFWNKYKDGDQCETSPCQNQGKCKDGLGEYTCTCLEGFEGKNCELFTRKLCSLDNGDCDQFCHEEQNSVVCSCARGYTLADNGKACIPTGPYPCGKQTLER

| SMILES | IC50 [nM] |
| --- | --- |
| CCN1CCN(c2ccc(-n3cnc(CNC(=O)c4ccc(Cl)s4)c3)cc2)C(=O)C1=O [Compound 60, 5-chloro-N-((1-(4-(4-ethyl-2,3-dioxopiperazin-1-yl)phenyl)-1H-imidazol-4-yl)methyl)thiophene-2-carboxamide] | ≥ 500 |
| COC(=O)c1cc(-n2ccccc2=O)ccc1-n1cnc(CNC(=O)c2ccc(Cl)s2)c1 [Compound 29, 5-Chloro-N-((1-(2-methoxycarbonyl-4-(2-oxopyridin-1(2H)-yl)phenyl)-1H-imidazol-4-yl)methyl)thiophene-2-carboxamide] | ≥ 500 |
| O=C(NCc1cn(-c2ccc(-n3ccccc3=O)cc2)cn1)c1ccc2[nH]ccc2c1 [Compound 54, N-((1-(4-(2-oxopyridin-1(2H)-yl)phenyl)-1H-imidazol-4-yl)methyl)-1H-indole-5-carboxamide] | ≥ 500 |
| O=C(NCc1cn(-c2ccc(-n3ccc(O)cc3=O)cc2)cn1)c1ccc(Cl)s1 [Compound 46, 5-chloro-N-((1-(4-(4-hydroxy-2-oxopyridin-1(2H)-yl)phenyl)-1H-imidazol-4-yl)methyl)thiophene-2-carboxamide] | 100 to 500 |
| O=C(NCc1cn(-c2ccc(N3CCNC3=O)cc2)cn1)c1ccc(Cl)s1 [Compound 19, 5-Chloro-N-((1-(4-(2-oxoimidazolidin-1-yl)phenyl)-1H-imidazol-4-yl)methyl)thiophene-2-carboxamide] | 100 to 500 |
| O=C(NCc1cn(-c2ccc(-n3ccccc3=O)cc2O)cn1)c1ccc(Cl)s1 [Compound 28, 5-Chloro-N-((1-(2-hydroxy-4-(2-oxopyridin-1(2H)-yl)phenyl)-1H-imidazol-4-yl)methyl)thiophene-2-carboxamide] | 100 to 500 |
| O=C(NCc1cn(-c2ccc(-n3ccccc3=O)cc2)cn1)c1ccc2cc[nH]c2c1 [Compound 31, N-((1-(4-(2-oxopyridin-1(2H)-yl)phenyl)-1H-imidazol-4-yl)methyl)-1H-indole-6-carboxamide] | ≥ 500 |
| C#Cc1ccc(C(=O)NCc2cn(-c3ccc(-n4ccccc4=O)cc3)cn2)s1 [Compound 32, 5-Ethynyl-N-((1-(4-(2-oxopyridin-1(2H)-yl)phenyl)-1H-imidazol-4-yl)methyl)thiophene-2-carboxamide] | ≤ 100 |
| CSc1nc(CNC(=O)c2ccc(Cl)s2)cn1-c1ccc(-n2ccccc2=O)cc1 [Compound 55, 5-chloro-N-((2-(methylthio)-1-(4-(2-oxopyridin-1(2H)-yl)phenyl)-1H-imidazol-4-yl)methyl)thiophene-2-carboxamide] | ≤ 100 |
| NC(=O)/N=c1\ccccn1-c1ccc(-n2cnc(CNC(=O)c3ccc(Cl)s3)c2)cc1 [Compound 61, N-((1-(4-(2-(carbamoylimino)pyridin-1(2H)-yl)phenyl)-1H-imidazol-4-yl)methyl)-5-chlorothiophene-2-carboxamide] | ≤ 100 |

Next, values leading:

| IC50 [nM] | SMILES |
| --- | --- |
| ≤ 100 | Cc1cccn(-c2ccc(-n3cnc(CNC(=O)c4ccc(Cl)s4)c3)cc2)c1=O [Compound 44, 5-chloro-N-((1-(4-(3-methyl-2-oxopyridin-1(2H)-yl)phenyl)-1H-imidazol-4-yl)methyl)thiophene-2-carboxamide] |
| ≤ 100 | CC(=O)Nc1ccn(-c2ccc(-n3cnc(CNC(=O)c4ccc(Cl)s4)c3)cc2)c(=O)n1 [Compound 51, N-((1-(4-(4-acetamido-2-oxopyrimidin-1(2H)-yl)phenyl)-1H-imidazol-4-yl)methyl)-5-chlorothiophene-2-carboxamide] |
| ≤ 100 | O=C1CN(c2cc(-n3ccccc3=O)ccc2-n2cnc(CNC(=O)c3ccc(Cl)s3)c2)CCN1 [Compound 26, 5-Chloro-N-((1-(2-(3-oxopiperazin-1-yl)-4-(2-oxopyridin-1(2H)-yl)phenyl)-1H-imidazol-4-yl)methyl)thiophene-2-carboxamide] |
| ≤ 100 | O=C(NCc1cn(-c2ccc(-n3ccncc3=O)cc2)cn1)c1ccc(Cl)s1 [Compound 12, 5-Chloro-N-((1-(4-(2-oxopyrazin-1(2H)-yl)phenyl)-1H-imidazol-4-yl)methyl)thiophene-2-carboxamide] |
| ≤ 100 | N#C/N=c1\ccccn1-c1ccc(-n2cnc(CNC(=O)c3ccc(Cl)s3)c2)cc1 [Compound 33, (E)-5-chloro-N-((1-(4-(2-(cyanoimino)pyridin-1(2H)-yl)phenyl)-1H-imidazol-4-yl)methyl)thiophene-2-carboxamide] |
| ≤ 100 | Cc1cccc(=O)n1-c1ccc(-n2cnc(CNC(=O)c3ccc(Cl)s3)c2)cc1 [Compound 14, 5-chloro-N-((1-(4-(6-methyl-2-oxopyridin-1(2H)-yl)phenyl)-1H-imidazol-4-yl)methyl)thiophene-2-carboxamide] |
| ≤ 100 | O=C(NCc1cn(-c2ccc(-n3cccc(O)c3=O)cc2)cn1)c1ccc(Cl)s1 [Compound 42, 5-chloro-N-((1-(4-(3-hydroxy-2-oxopyridin-1(2H)-yl)phenyl)-1H-imidazol-4-yl)methyl)thiophene-2-carboxamide] |
| ≤ 100 | CS(=O)(=O)c1nc(CNC(=O)c2ccc(Cl)s2)cn1-c1ccc(-n2cccc(F)c2=O)cc1 [Compound 67, 5-chloro-N-((1-(4-(3-fluoro-2-oxopyridin-1(2H)-yl)phenyl)-2-(methylsulfonyl)-1H-imidazol-4-yl)methyl)thiophene-2-carboxamide] |
| ≤ 100 | O=C(NCc1cn(-c2ccc(-n3ccnc(O)c3=O)cc2)cn1)c1ccc(Cl)s1 [Compound 58, 5-chloro-N-((1-(4-(3-hydroxy-2-oxopyrazin-1(2H)-yl)phenyl)-1H-imidazol-4-yl)methyl)thiophene-2-carboxamide] |
| ≤ 100 | CC(=O)/N=c1\ccccn1-c1ccc(-n2cnc(CNC(=O)c3ccc(Cl)s3)c2)cc1 [Compound 36, (E)-N-((1-(4-(2-(acetylimino)pyridin-1(2H)-yl)phenyl)-1H-imidazol-4-yl)methyl)-5-chlorothiophene-2-carboxamide] |
| ≤ 100 | O=C(NCc1cn(-c2ccc(-n3ccccc3=O)c(F)c2)cn1)c1ccc(Cl)s1 [Compound 40, 5-chloro-N-((1-(3-fluoro-4-(2-oxopyridin-1(2H)-yl)phenyl)-1H-imidazol-4-yl)methyl)thiophene-2-carboxamide] |
| ≤ 100 | Cn1c(=O)ccn(-c2ccc(-n3cnc(CNC(=O)c4ccc(Cl)s4)c3)cc2)c1=O [Compound 49, 5-chloro-N-((1-(4-(3-methyl-2,4-dioxo-3,4-dihydropyrimidin-1(2H)-yl)phenyl)-1H-imidazol-4-yl)methyl)thiophene-2-carboxamide] |
| ≤ 100 | O=C(NCc1cn(-c2ccc(-n3ccccc3=O)cc2F)cn1)c1ccc(Cl)s1 [Compound 21, 5-Chloro-N-((1-(2-fluoro-4-(2-oxopyridin-1(2H)-yl)phenyl)-1H-imidazol-4-yl)methyl)thiophene-2-carboxamide] |
| ≤ 100 | O=C(NCc1cn(-c2ccc(-n3cccc(F)c3=O)cc2)cn1)c1ccc(Cl)s1 [Compound 43, 5-chloro-N-((1-(4-(3-fluoro-2-oxopyridin-1(2H)-yl)phenyl)-1H-imidazol-4-yl)methyl)thiophene-2-carboxamide] |
| ≤ 100 | COc1cccn(-c2ccc(-n3cnc(CNC(=O)c4ccc(Cl)s4)c3)cc2)c1=O [Compound 41, 5-chloro-N-((1-(4-(3-methoxy-2-oxopyridin-1(2H)-yl)phenyl)-1H-imidazol-4-yl)methyl)thiophene-2-carboxamide] |
